This note sets out measurements from patent publication US20060252807A1, “Novel ortho-terphenyl inhibitors of p38 kinase and methods of treating inflammatory disorders” (Kalypsys, Inc., priority 2005, published 2006).

Structures are written as SMILES.

The assay concerns the target T1, active p38 alpha enzyme (Upstate Biotechnology) (Homo sapiens, UniProt Q16539).
T1 construct: purchased Upstate Biotechnology
Put plainly: p38α biochemical assay (ATP turnover, luminescent detection, Cambrex PKlight). Particulars: p38α kinase; Table 1 Biological Activity. The gist of the method: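 Luminescent PKlight readout of total ATP consumption follows a 2 h, 30C kinase reaction. Enzyme and MapkapK2 substrate run with 1.4 uM ATP (final) in buffer containing Mg2+, Ca2+, chelators, glycerol, reducing agent and BSA; test compounds added by pintool from DMSO.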

T1 sequence (Q16539 whole entry): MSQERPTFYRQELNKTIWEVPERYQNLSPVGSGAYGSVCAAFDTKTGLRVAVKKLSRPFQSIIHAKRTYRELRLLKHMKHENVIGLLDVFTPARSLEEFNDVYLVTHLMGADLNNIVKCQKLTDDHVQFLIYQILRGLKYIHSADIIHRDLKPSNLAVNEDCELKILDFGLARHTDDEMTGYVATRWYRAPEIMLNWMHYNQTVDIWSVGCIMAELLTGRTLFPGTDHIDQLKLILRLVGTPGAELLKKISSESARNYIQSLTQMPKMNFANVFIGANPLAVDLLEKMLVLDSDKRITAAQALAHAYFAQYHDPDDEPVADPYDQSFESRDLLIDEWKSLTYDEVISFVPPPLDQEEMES

Take `COc1cc(Cl)ccc1C(=O)N1CCC(c2[nH]nc(-c3ccc(F)cc3)c2-c2nc(C(=O)NC(C)C)cs2)CC1` [Example 953]: the IC50 is greater than 1000 nM.
With `CC(C)NC(=O)c1csc(-c2c(-c3ccc(F)cc3)n[nH]c2C2CCN(C(=O)Cc3ccc(O)c(Cl)c3)CC2)n1` [Example 954] the figure was greater than 1000 nM; with `COc1cc(C(=O)N2CCC(c3[nH]nc(-c4ccc(F)cc4)c3-c3nc(C(=O)NC(C)C)cs3)CC2)cc(Cl)n1` [Example 955], greater than 1000 nM.
In turn, `CC(C)NC(=O)c1csc(-c2c(-c3ccc(F)cc3)n[nH]c2C2CCN(C(=O)c3ccc4cc(O)ccc4c3)CC2)n1` [Example 956] displayed an IC50 greater than 1000 nM.
`CC(C)NC(=O)c1csc(-c2c(-c3ccc(F)cc3)n[nH]c2C2CCN(C(=O)c3c(O)ccc4ccccc34)CC2)n1` [Example 957] yielded a half-maximal inhibitory concentration (IC50) greater than 1000 nM.
With `CC(C)NC(=O)c1csc(-c2c(-c3ccc(F)cc3)n[nH]c2C2CCN(C(=O)c3cc4ccccc4cc3O)CC2)n1` [Example 958] the figure was greater than 1000 nM; with `CC(C)NC(=O)c1csc(-c2c(-c3ccc(F)cc3)n[nH]c2C2CCN(C(=O)c3ccc4ccccc4c3O)CC2)n1` [Example 959], greater than 1000 nM.
In the case of `CC(C)NC(=O)c1csc(-c2c(-c3ccc(F)cc3)n[nH]c2C2CCN(C(=O)c3ccc4cccc(O)c4n3)CC2)n1` [Example 960], the IC50 is greater than 1000 nM.
`CC(C)NC(=O)c1csc(-c2c(-c3ccc(F)cc3)n[nH]c2C2CCN(C(=O)C(C)NC(=O)OC(C)(C)C)CC2)n1` (centres unmarked) [Example 961] yielded an IC50 greater than 1000 nM.
As for `CC(C)NC(=O)c1csc(-c2c(-c3ccc(F)cc3)n[nH]c2C2CCN(C(=O)C(C)NC(=O)OC(C)(C)C)CC2)n1` (centres unmarked) [Example 962], the IC50 was greater than 1000 nM.
In the case of `CC(C)NC(=O)c1csc(-c2c(-c3ccc(F)cc3)n[nH]c2C2CCN(C(=O)c3ccccc3C(F)(F)F)CC2)n1` [Example 963], the IC50 is greater than 1000 nM.
With `CC(C)NC(=O)c1csc(-c2c(-c3ccc(F)cc3)n[nH]c2C2CCN(C(=O)CCc3nc4ccccc4[nH]3)CC2)n1` [Example 964] the figure was no more than 1000 nM.
In the case of `CC(C)NC(=O)c1csc(-c2c(-c3ccc(F)cc3)n[nH]c2C2CCN(C(=O)c3cccc(Cl)c3Cl)CC2)n1` [Example 965] it was greater than 1000 nM.
With `CC(C)NC(=O)c1csc(-c2c(-c3ccc(F)cc3)n[nH]c2C2CCN(C(=O)c3ccc(Cl)cc3Cl)CC2)n1` [Example 966] the figure was greater than 1000 nM; with `CC(C)NC(=O)c1csc(-c2c(-c3ccc(F)cc3)n[nH]c2C2CCN(C(=O)c3cc(Cl)ccc3Cl)CC2)n1` [Example 967], greater than 1000 nM; with `CC(C)NC(=O)c1csc(-c2c(-c3ccc(F)cc3)n[nH]c2C2CCN(C(=O)c3cc(F)c(F)c(O)c3F)CC2)n1` [Example 968], greater than 1000 nM.
In turn, `CC(C)NC(=O)c1csc(-c2c(-c3ccc(F)cc3)n[nH]c2C2CCN(C(=O)/C=C/c3ccc4c(c3)OCO4)CC2)n1` [Example 969] had an IC50 greater than 1000 nM.
With `Cc1ccc(C(=O)CCC(=O)N2CCC(c3[nH]nc(-c4ccc(F)cc4)c3-c3nc(C(=O)NC(C)C)cs3)CC2)cc1` [Example 970] the figure was greater than 1000 nM; with `CCCCCc1ccc(C(=O)N2CCC(c3[nH]nc(-c4ccc(F)cc4)c3-c3nc(C(=O)NC(C)C)cs3)CC2)cc1` [Example 971], greater than 1000 nM; with `CC(C)NC(=O)c1csc(-c2c(-c3ccc(F)cc3)n[nH]c2C2CCN(C(=O)c3cc(F)c(F)cc3Cl)CC2)n1` [Example 972], greater than 1000 nM.
With `CC(C)NC(=O)c1csc(-c2c(-c3ccc(F)cc3)n[nH]c2C2CCN(C(=O)c3cc(F)c(Cl)cc3F)CC2)n1` [Example 973] the figure was greater than 1000 nM; with `CCN(CC)c1ccc(C(=O)N2CCC(c3[nH]nc(-c4ccc(F)cc4)c3-c3nc(C(=O)NC(C)C)cs3)CC2)cc1` [Example 974], greater than 1000 nM.
With `COc1cc(/C=C/C(=O)N2CCC(c3[nH]nc(-c4ccc(F)cc4)c3-c3nc(C(=O)NC(C)C)cs3)CC2)ccc1O` [Example 975] the figure was greater than 1000 nM; with `COc1ccc(/C=C/C(=O)N2CCC(c3[nH]nc(-c4ccc(F)cc4)c3-c3nc(C(=O)NC(C)C)cs3)CC2)cc1O` [Example 976], greater than 1000 nM.
`CCCCOc1ccc(C(=O)N2CCC(c3[nH]nc(-c4ccc(F)cc4)c3-c3nc(C(=O)NC(C)C)cs3)CC2)cc1` [Example 977] registered an IC50 of no more than 1000 nM.
For `CC(C)NC(=O)c1csc(-c2c(-c3ccc(F)cc3)n[nH]c2C2CCN(C(=O)c3cc4cc(Cl)ccc4o3)CC2)n1` [Example 978], the IC50 was greater than 1000 nM.
With `COc1ccc([N+](=O)[O-])c(C(=O)N2CCC(c3[nH]nc(-c4ccc(F)cc4)c3-c3nc(C(=O)NC(C)C)cs3)CC2)c1` [Example 979] the figure was greater than 1000 nM; with `COc1cc(C(=O)N2CCC(c3[nH]nc(-c4ccc(F)cc4)c3-c3nc(C(=O)NC(C)C)cs3)CC2)cc(OC)c1O` [Example 980], greater than 1000 nM.
In turn, `CC(C)NC(=O)c1csc(-c2c(-c3ccc(F)cc3)n[nH]c2C2CCN(C(=O)c3ccccc3-c3ccccc3)CC2)n1` [Example 981] registered an IC50 greater than 1000 nM.
As for `CC(C)NC(=O)c1csc(-c2c(-c3ccc(F)cc3)n[nH]c2C2CCN(C(=O)c3cccc(Br)c3)CC2)n1` [Example 982], the IC50 is greater than 1000 nM.
In the case of `CC(C)NC(=O)c1csc(-c2c(-c3ccc(F)cc3)n[nH]c2C2CCN(C(=O)c3ccc(Br)cc3)CC2)n1` [Example 983] it was greater than 1000 nM; in that of `CC(C)NC(=O)c1csc(-c2c(-c3ccc(F)cc3)n[nH]c2C2CCN(C(=O)c3cccc(Cl)c3[N+](=O)[O-])CC2)n1` [Example 984], greater than 1000 nM.
In the case of `CC(C)NC(=O)c1csc(-c2c(-c3ccc(F)cc3)n[nH]c2C2CCN(C(=O)c3cc([N+](=O)[O-])ccc3Cl)CC2)n1` [Example 985] it was greater than 1000 nM.
Molecule `CC(C)NC(=O)c1csc(-c2c(-c3ccc(F)cc3)n[nH]c2C2CCN(C(=O)c3ccc([N+](=O)[O-])cc3Cl)CC2)n1` [Example 986] came in with an IC50 greater than 1000 nM.
With `CC(C)NC(=O)c1csc(-c2c(-c3ccc(F)cc3)n[nH]c2C2CCN(C(=O)C3=CC=CC(Cl)C=C3[N+](=O)[O-])CC2)n1` (centres unmarked) [Example 987] the figure was greater than 1000 nM; with `CC(C)NC(=O)c1csc(-c2c(-c3ccc(F)cc3)n[nH]c2C2CCN(C(=O)c3ccc(Cl)c([N+](=O)[O-])c3)CC2)n1` [Example 988], no more than 1000 nM; with `CC(C)NC(=O)c1csc(-c2c(-c3ccc(F)cc3)n[nH]c2C2CCN(C(=O)c3cc(Cl)ccc3[N+](=O)[O-])CC2)n1` [Example 989], greater than 1000 nM.
In the case of `CC(C)NC(=O)c1csc(-c2c(-c3ccc(F)cc3)n[nH]c2C2CCN(C(=O)c3cccc(Br)n3)CC2)n1` [Example 990] it was greater than 1000 nM.
In the case of `CC(C)NC(=O)c1csc(-c2c(-c3ccc(F)cc3)n[nH]c2C2CCN(C(=O)c3cncc(Br)c3)CC2)n1` [Example 991] it was no more than 1000 nM; in that of `CC(C)NC(=O)c1csc(-c2c(-c3ccc(F)cc3)n[nH]c2C2CCN(C(=O)c3cc(F)c(F)cc3[N+](=O)[O-])CC2)n1` [Example 992], greater than 1000 nM.
Consider `CC(C)NC(=O)c1csc(-c2c(-c3ccc(F)cc3)n[nH]c2C2CCN(C(=O)Cc3ccc(C(F)(F)F)cc3)CC2)n1` [Example 993], for which the IC50 is greater than 1000 nM.
With `CC(C)Cc1ccc(C(C)C(=O)N2CCC(c3[nH]nc(-c4ccc(F)cc4)c3-c3nc(C(=O)NC(C)C)cs3)CC2)cc1` (centres unmarked) [Example 994] the figure was greater than 1000 nM.
In the case of `CC(C)NC(=O)c1csc(-c2c(-c3ccc(F)cc3)n[nH]c2C2CCN(C(=O)c3cc(Cl)c(O)c(Cl)c3)CC2)n1` [Example 995] it was greater than 1000 nM.
In turn, `CC(C)NC(=O)c1csc(-c2c(-c3ccc(F)cc3)n[nH]c2C2CCN(C(=O)c3c(F)c(F)c(F)c(F)c3F)CC2)n1` [Example 996] gave an IC50 greater than 1000 nM.
With `COc1cc(OC)c(C(=O)N2CCC(c3[nH]nc(-c4ccc(F)cc4)c3-c3nc(C(=O)NC(C)C)cs3)CC2)c(OC)c1` [Example 997] the figure was greater than 1000 nM; with `COc1cc(OC)c(C(=O)N2CCC(c3[nH]nc(-c4ccc(F)cc4)c3-c3nc(C(=O)NC(C)C)cs3)CC2)cc1OC` [Example 998], greater than 1000 nM.
With `COc1cc(C(=O)N2CCC(c3[nH]nc(-c4ccc(F)cc4)c3-c3nc(C(=O)NC(C)C)cs3)CC2)cc(OC)c1OC` [Example 999] the figure was greater than 1000 nM; with `COc1ccc(C(=O)N2CCC(c3[nH]nc(-c4ccc(F)cc4)c3-c3nc(C(=O)NC(C)C)cs3)CC2)c(OC)c1OC` [Example 1000], greater than 1000 nM.
Molecule `CC(C)NC(=O)c1csc(-c2c(-c3ccc(F)cc3)n[nH]c2C2CCN(C(=O)c3ccccc3Cc3ccccc3)CC2)n1` [Example 1001] displayed an IC50 greater than 1000 nM.
With `CC(C)NC(=O)c1csc(-c2c(-c3ccc(F)cc3)n[nH]c2C2CCN(C(=O)c3cccc(Oc4ccccc4)c3)CC2)n1` [Example 1002] the figure was greater than 1000 nM; with `CC(C)NC(=O)c1csc(-c2c(-c3ccc(F)cc3)n[nH]c2C2CCN(C(=O)c3ccccc3Oc3ccccc3)CC2)n1` [Example 1003], greater than 1000 nM.
With `CC(C)NC(=O)c1csc(-c2c(-c3ccc(F)cc3)n[nH]c2C2CCN(C(=O)c3ccc(Oc4ccccc4)cc3)CC2)n1` [Example 1004] the figure was greater than 1000 nM; with `CC(C)NC(=O)c1csc(-c2c(-c3ccc(F)cc3)n[nH]c2C2CCN(C(=O)c3ccc(-c4ccc(O)cc4)cc3)CC2)n1` [Example 1005], greater than 1000 nM.
In the case of `Cc1cc(C(=O)N2CCC(c3[nH]nc(-c4ccc(F)cc4)c3-c3nc(C(=O)NC(C)C)cs3)CC2)ccc1Br` [Example 1006] it was greater than 1000 nM.
On to `Cc1ccc(C(=O)N2CCC(c3[nH]nc(-c4ccc(F)cc4)c3-c3nc(C(=O)NC(C)C)cs3)CC2)cc1Br` [Example 1007], for which the IC50 was greater than 1000 nM.
On to `CC(C)NC(=O)c1csc(-c2c(-c3ccc(F)cc3)n[nH]c2C2CCN(C(=O)Cc3ccc(Br)cc3)CC2)n1` [Example 1008], for which the IC50 is greater than 1000 nM.

As usually defined, the IC50 is the concentration needed to halve the response being measured. Low values mean higher potency, high ones lower potency.
